Tests used:
[1] = test system: T25E M^pro; assay type: biochemical, SARS-CoV-2
[2] = test system: M49L M^pro; assay type: biochemical, SARS-CoV-2

Compound | increase of Ki compared to wild-type [1] | increase of Ki compared to wild-type [2]
Cn1cnc(Cn2c(=O)[nH]/c(=N\c3cc4cn(C)nc4cc3Cl)n(Cc3cc(F)c(F)cc3F)c2=O)n1 [ensitrelvir] | 300 fold | 40 fold
CC(C)(C)[C@H](NC(=O)C(F)(F)F)C(=O)N1C[C@H]2[C@@H]([C@H]1C(=O)N[C@H](C#N)C[C@@H]1CCNC1=O)C2(C)C [nirmatrelvir] | minimal to no observed impact on Ki | minimal to no observed impact on Ki

Source: paper PMC11161032 (ACS infectious diseases, 2023)
